In US11420959B2, “DACOS type NNRTIS amino acid ester derivative, preparation method thereof, pharmaceutical composition, and application thereof” (YUNNAN UNIVERSITY, priority 2018, dated 2022) one finds CC50, EC50 and bioavailability data, which are given here for 27 compounds.

pEC50: −log10 of the molar value. Where two headings read alike, the source gives them in different places. Some results are limits rather than exact numbers.

Data set [1] is described as follows: Cytotoxicity experiment (MTT method) on C8166 cells. To be noted: human. The data set is classed as cell-based. The protocol: Cytotoxicity experiment: The toxicity of the compounds on C8166 cells was determined by MTT method. In a 96-well cell culture plate, the compounds were subjected to 5-fold serial dilution and 100 μL of C8166 cell suspension (4×10^5/mL) was added into each well. Three replicate wells were set for each concentration. At the same time, a cell control group without drugs and drug control groups with Zidovudine (AZT) or Nevirapine (NVP) were set. The cells were incubated at 37° C. in a 5% CO2 incubator for three days, followed by the addition of MTT solution into each well, and then the cells were incubated at 37° C. for 4 hours. 15% SDS-50% DMF was added to each well and the cells were incubated at 37° C. in a 5% CO2 incubator overnight. After mixing evenly, the OD values were measured by BIO-TEK ELx800 ELISA instrument (determination wavelength: 570 nm; reference wavelength: 630 nm).
(Tetrazolium dyes change colour on reduction, which living cells bring about.)

A further data set has as its system HIV-1IIIB. Briefly: Syncytium inhibition experiment, C8166 cells infected with HIV-1IIIB. The format is cell-based. The note with it: Human immunodeficiency virus 1, 72 h, syncytium count, three days. Here is the method: The specific method was described below.
Syncytium inhibition experiment: 100 μL of C8166 cell suspension (4×10^5/mL) was inoculated into each well of a 96-well cell culture plate containing 5-fold serial dilutions of the compounds, followed by addition of HIV-1IIIB diluted supernatant (MOI=0.04). Three replicate wells were set for each serial concentration. […] The cells were incubated at 37° C. in a 5% CO2 incubator for three days. The number of the syncytia was counted in five non-overlapping fields of view by using an inverted microscope (100×). […] Calculation formula: cytopathic inhibition rate (%)=(1−number of syncytia in experimental wells/number of syncytia in control well)×100%.

For data set [2] the following is noted: due to strong hydrophobicity; cited from earlier work.

Usually CC50 stands for the concentration at which the toxic effect on the cells reaches its halfway point. Regarding `Cc1cn([C@H]2C[C@H](N=[N+]=[N-])[C@@H](CO)O2)c(=O)[nH]c1=O` [AZT, Zidovudine, reference compound], the CC50 at 3 days in data set [1] was more than 749 µM.
In general, pEC50 refers to −log10 of the EC50, conventionally taken in molar units. A lower pEC50 goes with a large EC50. With `CCc1c(CC2CCCCC2)nc(SCC(=O)c2ccc(OC(=O)CN)cc2)[nH]c1=O` [Compound I-1], in data set [1], it took 138 µM to reach half-maximal cytotoxicity (CC50 at 3 days). For the same compound, the pEC50 in the data set with HIV-1IIIB is 8.40.
`CCc1c(CC2CCCCC2)nc(SCC(=O)c2ccc(OC(=O)C(N)CC(C)C)cc2)[nH]c1=O` (stereo not shown) [Compound I-2] returned a 50% cytotoxic concentration (CC50) at 3 days in data set [1] of 112 µM. The same compound gave a pEC50 in the data set with HIV-1IIIB of 8.52.
The like results for `CCc1c(CC2CCCCC2)nc(SCC(=O)c2ccc(OC(=O)[C@H](N)[C@H](C)CC)cc2)[nH]c1=O` [Compound I-3] were, in that order, 134 µM and 8.30.
Turning to `CCc1c(CC2CCCCC2)nc(SCC(=O)c2ccc(OC(=O)C3CCCN3)cc2)[nH]c1=O` (stereo not shown) [Compound I-4], in data set [1], the CC50 at 3 days is 95.4 µM. Moreover, the pEC50 with HIV-1IIIB was 7.92.
The compound `CCc1c(CC2CCCCC2)nc(SCC(=O)c2ccc(OC(=O)C(N)Cc3c[nH]c4ccccc34)cc2)[nH]c1=O` (stereo not shown) [Compound I-5] registered a cytotoxic concentration (CC50) at 3 days in data set [1] of 95.2 µM. The pEC50 with HIV-1IIIB was 8.40.
Turning to `CCc1c(CC2CCCCC2)nc(SCC(=O)c2ccc(OC(=O)[C@@H](C)N)cc2)[nH]c1=O` [Compound I-6], the CC50 at 3 days in data set [1] was 96 µM. Moreover, the pEC50 in the data set on HIV-1IIIB was 8.40.
On to `CCc1c(CC2CCCCC2)nc(SCC(=O)c2ccc(OC(=O)C(N)Cc3ccccc3)cc2)[nH]c1=O` (stereo not shown) [Compound I-7], for which it took 90.1 µM to reach half-maximal cytotoxicity in data set [1] (CC50 at 3 days). Moreover, the negative-log EC50 (pEC50) in the data set on HIV-1IIIB is 8.05.
On to `CCc1c(CC2CCCCC2)nc(SCC(=O)c2ccc(OC(=O)C(N)CCSC)cc2)[nH]c1=O` (stereo not shown) [Compound I-8], for which the midpoint of cytotoxicity in data set [1], the CC50 at 3 days, lay at 116 µM. In the data set on HIV-1IIIB, this compound had a pEC50 of 8.40.
`CCc1c(CC2CCCCC2)nc(SCC(=O)c2ccc(OC(=O)C(N)CCCCN)cc2)[nH]c1=O` (stereo not shown) [Compound I-9] had a CC50 at 3 days in data set [1] of 101 µM. In the data set with HIV-1IIIB, this compound had a pEC50 of 8.22.
In data set [1], `CCc1c(CC2CCCCC2)nc(SCC(=O)c2ccc(OC(=O)C(N)Cc3cnc[nH]3)cc2)[nH]c1=O` (stereo not shown) [Compound I-10] gave a CC50 at 3 days of 199 µM. Further, in the data set on HIV-1IIIB, the pEC50 was 7.92.
In the case of `CCc1c(CC2CCCCC2)nc(SCC(=O)c2ccc(OC(=O)C(N)CCC(N)=O)cc2)[nH]c1=O` (stereo not shown) [Compound I-11], it took 118 µM to reach half-maximal cytotoxicity in data set [1] (CC50 at 3 days). In the data set on HIV-1IIIB, this compound had a pEC50 of 8.30.
The like results for `CCc1c(CC2CCCCC2)nc(SCC(=O)c2ccc(OC(=O)C(N)CC(N)=O)cc2)[nH]c1=O` (stereo not shown) [Compound I-12] were, in that order, 120 µM and 8.40.
In data set [1], `CCc1c(CC2CCCCC2)nc(SCC(=O)c2ccc(OC(=O)C(N)C(C)C)cc2)[nH]c1=O` (stereo not shown) [Compound I-13] returned a CC50 at 3 days of 94.8 µM. Moreover, the pEC50 in the data set on HIV-1IIIB was 8.52.
The like results for `CC[C@@H](C)[C@@H](N)C(=O)Oc1ccc(C(=O)CSc2nc(CC3CCCCC3)c(C(C)C)c(=O)[nH]2)cc1` [Compound I-14] were, in that order, 186 µM and 8.40.
In data set [1], `CC(C)c1c(CC2CCCCC2)nc(SCC(=O)c2ccc(OC(=O)C3CCCN3)cc2)[nH]c1=O` (stereo not shown) [Compound I-15] showed a CC50 at 3 days of 98.3 µM. Further, the negative-log EC50 (pEC50) in the data set on HIV-1IIIB was 7.92.
The like results for `CC(C)c1c(CC2CCCCC2)nc(SCC(=O)c2ccc(OC(=O)C(N)Cc3c[nH]c4ccccc34)cc2)[nH]c1=O` (stereo not shown) [Compound I-16] were, in that order, 118 µM and 8.40.
The like results for `CC(C)c1c(CC2CCCCC2)nc(SCC(=O)c2ccc(OC(=O)CN)cc2)[nH]c1=O` [Compound I-17] were, in that order, 191 µM and 8.52.
Compound `CC(C)CC(N)C(=O)Oc1ccc(C(=O)CSc2nc(CC3CCCCC3)c(C(C)C)c(=O)[nH]2)cc1` (stereo not shown) [Compound I-18] registered a CC50 at 3 days in data set [1] of 97.4 µM. In the data set on HIV-1IIIB, the pEC50 was 8.40.
The like results for `CC(C)c1c(CC2CCCCC2)nc(SCC(=O)c2ccc(OC(=O)C(N)C(C)C)cc2)[nH]c1=O` (stereo not shown) [Compound I-19] were, in that order, 126 µM and 8.52.
Regarding `CSCCC(N)C(=O)Oc1ccc(C(=O)CSc2nc(CC3CCCCC3)c(C(C)C)c(=O)[nH]2)cc1` (stereo not shown) [Compound I-20], half-maximal cytotoxicity in data set [1] (CC50 at 3 days) was put at 153 µM. Further, in the data set on HIV-1IIIB, the pEC50 was 8.52.
In the case of `CC(C)c1c(CC2CCCCC2)nc(SCC(=O)c2ccc(OC(=O)C(N)Cc3ccccc3)cc2)[nH]c1=O` (stereo not shown) [Compound I-21], it took 95 µM to reach half-maximal cytotoxicity in data set [1] (CC50 at 3 days). The negative-log EC50 (pEC50) in the data set on HIV-1IIIB was 8.40.
Compound `Cc1c(CC2CCCCC2)nc(SCC(=O)c2ccc(OC(=O)C(N)Cc3ccccc3)cc2)[nH]c1=O` (stereo not shown) [Compound I-22] registered a 50% cytotoxic concentration (CC50) at 3 days in data set [1] of 98.6 µM. Moreover, the negative logarithm of the EC50 (pEC50) in the data set on HIV-1IIIB is 8.00.
The like results for `Cc1c(CC2CCCCC2)nc(SCC(=O)c2ccc(OC(=O)CN)cc2)[nH]c1=O` [Compound I-23] were, in that order, more than 200 µM and 8.10.
Consider `CSCCC(N)C(=O)Oc1ccc(C(=O)CSc2nc(CC3CCCCC3)c(C)c(=O)[nH]2)cc1` (stereo not shown) [Compound I-24], for which it took 199 µM to reach half-maximal cytotoxicity in data set [1] (CC50 at 3 days). This compound gave a negative-log EC50 (pEC50) in the data set with HIV-1IIIB of 7.92.
For the compound `CCc1c(CC2CCCCC2)nc(SCC(=O)c2ccccc2)[nH]c1=O` [DB02], the bioavailability result in data set [2] was “low”.
With `Cc1ccnc2c1NC(=O)c1cccnc1N2C1CC1` [NVP, Nevirapine, reference compound], the half-maximal cytotoxic concentration (CC50) at 3 days in data set [1] (C8166 cells, MTT, three days, read-out: CC50) worked out at 504 µM. Also, the negative logarithm of the EC50 (pEC50) in the data set on HIV-1IIIB is 7.89.
